Some test systems named below: HCC-2998 colon; K-562 leukemia; M14 melanoma; NCI-H226 lung; OVCAR-8 ovarian; RPMI-8226 leukemia; SF-539 CNS; UACC-257 melanoma.
Test in all cases: DTP human tumour cell line panel, 48 h

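Dose response: 5 concentrations. Exposure: 48 h. Format: 96-well plates. Endpoint: linear interpolation; highest concentration if not reached. TGI is the concentration that stops growth completely.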 Bounds are passed on as bounds.

As usually defined, the TGI is the concentration giving total growth inhibition. A low value points to more potent growth arrest.

As to `Nc1c(C(=O)NC23CC4CC(CC(C4)C2)C3)[n+]([O-])c2ccccc2[n+]1[O-]`, the total growth inhibition concentration (TGI) with HCC-2998 colon, with K-562 leukemia, in the test on M14 melanoma, with NCI-H226 lung, in the test on OVCAR-8 ovarian and in the test with RPMI-8226 leukemia was greater than 100 µM each time. In addition, the concentration for total growth inhibition (TGI) in the test on SF-539 CNS and in the test on UACC-257 melanoma was greater than 100 µM each time.

`ClC1c2ccccc2C2(c3ccccc3)OOC1(c1ccccc1)O2` (stereo not drawn): the TGI in the test on HCC-2998 colon was found to be 6.24 µM; in the test on M14 melanoma, 2.76 µM; in the test with NCI-H226 lung, 4.08 µM; with OVCAR-8 ovarian it was 5.16 µM; in the test with RPMI-8226 leukemia, 3.17 µM; in the test on SF-539 CNS it was 5.01 µM. In the test with UACC-257 melanoma, this molecule displayed a TGI of 3.65 µM.

On to `CC(O)C(NC(=O)c1ccccc1)C(=O)N(Cc1ccccc1)Cc1ccccc1` (stereo not drawn), for which the TGI in the test with HCC-2998 colon, with K-562 leukemia, with M14 melanoma, in the test on NCI-H226 lung, in the test with OVCAR-8 ovarian and in the test on RPMI-8226 leukemia was greater than 100 µM each time. The TGI in the test on SF-539 CNS and in the test with UACC-257 melanoma was greater than 100 µM in each case.

As for `CCC(C)c1cccc(C)c1NC(=O)C(=O)Cc1nc2ccccc2s1` (stereo not drawn), the TGI in the test on HCC-2998 colon, in the test on K-562 leukemia, in the test on M14 melanoma, with OVCAR-8 ovarian, in the test with RPMI-8226 leukemia and in the test on SF-539 CNS was greater than 100 µM each time. Also, the total growth inhibition concentration (TGI) in the test with UACC-257 melanoma was greater than 100 µM.

In the case of `CN(C)CCNC(=O)c1c2ccccc2cc2ccccc12`, the concentration for total growth inhibition (TGI) is greater than 100 µM in the test on HCC-2998 colon; 67.1 µM with K-562 leukemia; 30.7 µM in the test with M14 melanoma; 48.5 µM with NCI-H226 lung; greater than 100 µM in the test on OVCAR-8 ovarian; greater than 100 µM in the test on RPMI-8226 leukemia. The TGI in the test with SF-539 CNS was greater than 100 µM; with UACC-257 melanoma, 34.4 µM.

For `C[N+](C)(C)CC(CC(=O)[O-])C1CC1` (stereo not drawn), the concentration for total growth inhibition (TGI) in the test with K-562 leukemia, in the test with M14 melanoma, in the test with OVCAR-8 ovarian, in the test with RPMI-8226 leukemia, with SF-539 CNS and in the test with UACC-257 melanoma was greater than 100 µM each time.

`O=c1ccn(C2(CO)C=C(CO)C(O)C2O)c(=O)[nH]1` (stereo not drawn): the TGI in the test on HCC-2998 colon, in the test on K-562 leukemia, in the test with M14 melanoma, in the test on NCI-H226 lung, with OVCAR-8 ovarian and with RPMI-8226 leukemia was greater than 25.7 µM throughout. In addition, the TGI in the test on SF-539 CNS and in the test with UACC-257 melanoma was greater than 25.7 µM in each case.

As for `CNc1ccc([N+](=O)[O-])c2c(NCCCN(C)C)ccnc12`, the TGI in the test with HCC-2998 colon, in the test with K-562 leukemia, with M14 melanoma, with NCI-H226 lung, with OVCAR-8 ovarian and in the test with RPMI-8226 leukemia was greater than 100 µM throughout. The TGI in the test on SF-539 CNS and in the test with UACC-257 melanoma was greater than 100 µM in each case.

On to `O=C(Oc1ccc2c(-c3ccccc3)c(C(=O)Nc3ccc(Cl)cc3)c(=O)oc2c1)c1ccccc1`, for which the TGI with K-562 leukemia, with M14 melanoma, in the test with NCI-H226 lung, in the test with OVCAR-8 ovarian, in the test on RPMI-8226 leukemia and in the test with SF-539 CNS was greater than 100 µM throughout. In addition, the TGI in the test with UACC-257 melanoma is greater than 100 µM.

Consider `CN1C(=O)CCC1c1ccc2c(c1)oc(=O)n2C` (stereo not drawn), for which the TGI with HCC-2998 colon, in the test with K-562 leukemia, in the test with M14 melanoma, in the test with NCI-H226 lung, in the test with OVCAR-8 ovarian and in the test on RPMI-8226 leukemia was greater than 100 µM each time. Besides, the total growth inhibition concentration (TGI) in the test with SF-539 CNS and in the test with UACC-257 melanoma was greater than 100 µM each time.

Take `CC(C)CN1CC(C)C(=O)NC1=O` (stereo not drawn): the TGI in the test on K-562 leukemia, in the test on NCI-H226 lung, in the test on OVCAR-8 ovarian, in the test with SF-539 CNS and in the test with UACC-257 melanoma was greater than 100 µM in each case.

Regarding `COc1ccc(N=Nc2c(-c3ccccc3)nn(C(=O)CC(=O)Nc3ccccc3Cl)c2-c2ccccc2)cc1`, the TGI in the test on HCC-2998 colon, with K-562 leukemia, in the test on M14 melanoma, in the test on NCI-H226 lung, in the test on OVCAR-8 ovarian and with SF-539 CNS was greater than 100 µM throughout. This molecule displayed a total growth inhibition concentration (TGI) in the test on UACC-257 melanoma greater than 100 µM.

On to `Cc1ccc(NC(=O)/C(=N/NC(=O)C[N+](C)(C)C)c2nc3ccccc3[nH]c2=O)cc1`, for which the total growth inhibition concentration (TGI) in the test on HCC-2998 colon, in the test on M14 melanoma, with NCI-H226 lung, in the test with OVCAR-8 ovarian, in the test with RPMI-8226 leukemia and in the test with SF-539 CNS was greater than 100 µM throughout. In addition, the concentration for total growth inhibition (TGI) with UACC-257 melanoma is greater than 100 µM.

`Cc1cccc(C(C)C)c1NC(=O)CCl`: the concentration for total growth inhibition (TGI) in the test on HCC-2998 colon, in the test on K-562 leukemia, in the test with M14 melanoma, in the test on NCI-H226 lung, in the test with RPMI-8226 leukemia and in the test with SF-539 CNS was greater than 100 µM throughout. In the test on UACC-257 melanoma, this molecule gave a total growth inhibition concentration (TGI) greater than 100 µM.

As to `c1ccc2c(c1)Sc1ccccc1N2C1CN2CCC1CC2` (stereo not drawn), the TGI in the test on HCC-2998 colon worked out at 29 µM; in the test with K-562 leukemia, 29.5 µM; in the test with NCI-H226 lung, 18.9 µM; in the test with OVCAR-8 ovarian it was 32.5 µM; in the test with RPMI-8226 leukemia, 43.4 µM; with SF-539 CNS, 28.3 µM. In the test on UACC-257 melanoma, this molecule displayed a TGI of 31.8 µM.

(Values after PubChem BioAssay (NCI).)
